According to PMC6736568, “Discovery of Novel Anti-cryptosporidial Activities From Natural Products by in vitro High-Throughput Phenotypic Screening” (Frontiers in Microbiology, 2019):
Counter-ions that a name gives are not always drawn. Like-named read-outs stand apart in the source and are kept apart here.

Tests used:
Cryptosporidium parvum = experiment: qRT-PCR assay of the growth of C. parvum in vitro in HCT-8 host cells (primary and secondary screening, EC50); assay type: cell-based; conditions: for inhibition at 10 µM: Cryptosporidium parvum, HCT-8, read-out: Inhibition (%); for inhibition at 10 µM / Inhibition (%): primary screening at 10 uM; for % Inhibition (3.3 uM): secondary screening at 3.3 uM
[1] = primary screening at 10 uM, treated vs control
[2] = primary screening at 10 uM, from Hs18S ΔCT

| Compound | Hs18S ΔCT (HCT-8 host cells (Hs18S); [1]) | Inhibition (%) (Cryptosporidium parvum) | Cytotoxicity (%) (HCT-8 host cells (Hs18S); [2]) | also measured |
| --- | --- | --- | --- | --- |
| Cc1cc(O)cc(=O)o1 | 0.04 | – | – | inhibition at 10 µM (Cryptosporidium parvum): 15.4%; cytotoxicity at 10 µM (in vitro): 3.1% |
| COc1cc(OC)c2c(c1)O[C@H](c1ccc(OC)c(OC)c1)[C@@H](O)C2 | -0.47 | – | – | inhibition at 10 µM (Cryptosporidium parvum): 17.5%; cytotoxicity at 10 µM (in vitro): -38.4% |
| COc1ccc2c(c1)OCC(Cc1ccc(OC)c(OC)c1)C2=O (stereo not shown) | 0.04 | – | – | inhibition at 10 µM (Cryptosporidium parvum): 20.2%; cytotoxicity at 10 µM (in vitro): 2.4% |
| Cc1cc(O)c2c(c1O)C(=O)c1c(O)cc(C)c(O)c1C2=O [1,4,5,8-TETRAHYDROXY-2,6-DIMETHYLANTHROQUINONE] | – | – | – | cytotoxicity at 41 h, 10 µM (in vitro; human): 92%; Hs18S ΔCT (HCT-8 host cells (Hs18S); human, 41 h, 10 μM): 3.65 |
| CC1CCC23CCC4(C)C5(C)CCC6C(C)(C)C(=O)CCC6(C)C5CCC4(OC2=O)C3C1C (stereo not shown) [3-OXOURSAN (28-13)OLIDE] | 6.62 | – | – | cytotoxicity at 10 µM (in vitro): 99% |
| CC(=O)O[C@@H]1C[C@@]2(C)[C@H](c3ccoc3)C[C@H]3O[C@]32[C@]2(C)C(=O)C(O)=C3C(C)(C)C(=O)C=C[C@]3(C)[C@@H]12 [ANTHOTHECOL] | – | – | – | cytotoxicity at 41 h, 10 µM (in vitro; human): 98.9%; Hs18S ΔCT (HCT-8 host cells (Hs18S); human, 41 h, 10 μM): 6.51 |
| C[C@@]12C(=O)OC(=O)[C@]1(C)[C@H]1CC[C@@H]2O1 [CANTHARIDIN] | 7.39 | – | – | cytotoxicity at 10 µM (in vitro): 99.4% |
| CC1=C(O)C(=O)C=C2C1=CC=C1[C@@]2(C)CC[C@@]2(C)[C@@H]3C[C@](C)(C(=O)O)CC[C@]3(C)CC[C@]12C [CELASTROL] | 3.82 | – | – | cytotoxicity at 10 µM (in vitro): 92.9% |
| C[C@@H]1O[C@@H](O[C@H]2CC[C@]3(C=O)[C@H]4CC[C@]5(C)[C@@H](C6=CC(=O)OC6)CC[C@]5(O)[C@@H]4CC[C@]3(O)C2)[C@H](O)[C@H](O)[C@H]1O [CONVALLATOXIN] | 10.84 | – | – | cytotoxicity at 10 µM (in vitro): 99.9% |
| C[C@H]1O[C@@H](O[C@H]2[C@@H](O)C[C@H](O[C@H]3[C@@H](O)C[C@H](O[C@H]4CC[C@@]5(C)[C@H](CC[C@@H]6[C@@H]5CC[C@]5(C)[C@@H](C7=CC(=O)OC7)CC[C@]65O)C4)O[C@@H]3C)O[C@@H]2C)C[C@H](O)[C@@H]1O [DIGITOXIN] | 13.47 | – | – | cytotoxicity at 10 µM (in vitro): 100% |
| C[C@H]1O[C@@H](O[C@H]2[C@@H](O)C[C@H](O[C@H]3[C@@H](O)C[C@H](O[C@H]4CC[C@@]5(C)[C@H](CC[C@@H]6[C@@H]5C[C@@H](O)[C@]5(C)[C@@H](C7=CC(=O)OC7)CC[C@]65O)C4)O[C@@H]3C)O[C@@H]2C)C[C@H](O)[C@@H]1O [DIGOXIN] | 14.32 | – | – | cytotoxicity at 10 µM (in vitro): 100% |
| CC(C)=CCC[C@]1(C)C=Cc2c(O)c3c(c(CC=C(C)C)c2O1)O[C@]12C(=C[C@@H]4C[C@H]1C(C)(C)O[C@@]2(C/C=C(/C)C(=O)O)C4=O)C3=O [GAMBOGIC ACID] | – | – | – | cytotoxicity at 41 h, 10 µM (in vitro; human): 99.9%; Hs18S ΔCT (HCT-8 host cells (Hs18S); human, 41 h, 10 μM): 10.02 |
| CC(=O)O[C@H]1CC[C@@]2(C)[C@H](CC[C@@H]3[C@@H]2CC[C@]2(C)[C@@H](C4=CC(=O)OC4)[C@@H](OC(C)=O)C[C@]32O)C1 [GITOXIGENIN DIACETATE] | 8.90 | – | – | cytotoxicity at 10 µM (in vitro): 99.8% |
| CC(=O)O[C@H]1C[C@H](O[C@H]2[C@@H](O)C[C@H](O[C@H]3[C@@H](O)C[C@H](O[C@H]4CC[C@@]5(C)[C@H](CC[C@@H]6[C@@H]5C[C@@H](O)[C@]5(C)[C@@H](C7=CC(=O)OC7)CC[C@]65O)C4)O[C@@H]3C)O[C@@H]2C)O[C@H](C)[C@H]1O[C@@H]1O[C@H](CO)[C@@H](O)[C@H](O)[C@H]1O [LANATOSIDE C] | 8.93 | – | – | cytotoxicity at 10 µM (in vitro): 99.8% |
| C[C@@H]1O[C@@H](O[C@H]2C[C@@H](O)[C@]3(CO)[C@H]4[C@H](O)C[C@]5(C)[C@@H](C6=CC(=O)OC6)CC[C@]5(O)[C@@H]4CC[C@]3(O)C2)[C@H](O)[C@H](O)[C@H]1O [OUABAIN] | 11.65 | – | – | cytotoxicity at 41 h, 10 µM (in vitro): 100% |
| CO[C@H]1[C@H](O)[C@H](O[C@H]2CC[C@@]3(C=O)[C@H](CC[C@@H]4[C@@H]3CC[C@]3(C)[C@@H](C5=CC(=O)OC5)CC[C@]43O)C2)O[C@@H](C)[C@@H]1O [PERUVOSIDE] | 10.85 | – | – | cytotoxicity at 10 µM (in vitro): 99.9% |
| COc1cc([C@@H]2c3cc4c(cc3[C@H](O)[C@H]3COC(=O)[C@H]23)OCO4)cc(OC)c1OC [PODOFILOX] | 5.42 | – | – | cytotoxicity at 41 h, 10 µM (in vitro): 97.7% |
| CC(C)=CCc1c2c(c3occ(-c4ccc(O)c(O)c4)c(=O)c3c1O)C=CC(C)(C)O2 [POMIFERIN] | – | – | – | cytotoxicity at 41 h, 10 µM (in vitro; human): 98.8%; Hs18S ΔCT (HCT-8 host cells (Hs18S); human, 41 h, 10 μM): 6.42 |
| C[C@@H]1O[C@@H](O[C@@H]2C=C3CC[C@@H]4[C@H](CC[C@]5(C)[C@@H](c6ccc(=O)oc6)CC[C@]45O)[C@@]3(C)CC2)[C@H](O)[C@H](O)[C@H]1O [PROSCILLARIDIN] | 13.28 | – | – | cytotoxicity at 10 µM (in vitro): 100% |
| C[C@]12CC[C@H]3[C@@H](CC[C@]4(O)C[C@@H](O)CC[C@]34C=O)[C@@]1(O)CC[C@@H]2C1=CC(=O)OC1 [STROPHANTHIDIN] | 11.98 | – | – | cytotoxicity at 41 h, 10 µM (in vitro; human): 100% |
| COc1cc2c3cc1Oc1cc(ccc1O)C[C@@H]1c4c(cc(OC)c(O)c4Oc4ccc(cc4)C[C@@H]3N(C)CC2)CC[N+]1(C)C.Cl.O.O.O.O.O.[Cl-] [TUBOCURARINE CHLORIDE] | -0.29 | 37.53 | -22.2 | – |
| CC[C@H]1OC(=O)C[C@@H](O)[C@H](C)[C@@H](O[C@@H]2O[C@H](C)[C@@H](O[C@H]3C[C@@](C)(O)[C@@H](O)[C@H](C)O3)[C@H](N(C)C)[C@H]2O)[C@@H](CC=O)C[C@@H](C)C(=O)/C=C/C(C)=C/[C@@H]1CO[C@@H]1O[C@H](C)[C@@H](O)[C@@H](OC)[C@H]1OC [TYLOSIN TARTRATE] | -0.19 | 25.75 | -14.2 | – |
| O=c1ccn([C@@H]2O[C@H](COP(=O)([O-])OP(=O)([O-])OP(=O)([O-])O)[C@@H](O)[C@H]2O)c(=O)[nH]1.[Na+].[Na+].[Na+] [URIDINE TRIPHOSPHATE TRISODIUM] | 0.23 | 91.48 | 14.5 | % Inhibition (3.3 uM) (Cryptosporidium parvum): 17% |
| COC(=O)C1=CO[C@@H](O[C@@H]2O[C@H](CO)[C@@H](O)[C@H](O)[C@H]2O)[C@H]2[C@@H]1C(=O)C[C@@H]2C [VERBENALIN] | 2.45 | -4.48 | 81.7 | – |
| O.O=C(O)[C@@H]1[C@H]2C[C@H]3c4[nH]c5ccccc5c4CCN3C[C@@H]2CC[C@@H]1O [YOHIMBIC ACID HYDRATE] | -0.27 | -21.23 | -20.7 | – |
| C[C@H](CCC(=O)O)[C@H]1CC[C@H]2[C@@H]3C[C@H](O)[C@@H]4C[C@H](O)CC[C@]4(C)[C@H]3CC[C@]12C [alpha-HYDROXYDEOXYCHOLIC ACID] | -0.52 | -6.93 | -43.0 | – |

| Compound | Hs18S ΔCT (HCT-8 host cells (Hs18S); [1]) | Inhibition (%) (Cryptosporidium parvum) | Cytotoxicity (%) (HCT-8 host cells (Hs18S); [2]) | also measured |
| --- | --- | --- | --- | --- |
| NCCCC(=O)O [gamma-AMINOBUTYRIC ACID] | – | – | – | cytotoxicity at 41 h, 10 µM (in vitro; human): 2.6%; Hs18S ΔCT (HCT-8 host cells (Hs18S); human, 41 h, 10 μM): 0.04 |
| ABAMECTIN (avermectin B1a shown) | 0.59 | 97.65 | 33.4 | % Inhibition (3.3 uM) (Cryptosporidium parvum): -19% |
| AGELASINE (stereochemistry of diterpene unknown) | 0.27 | 43.55 | 16.8 | – |
| AVERMECTIN A1a | 0.02 | 97.32 | 1.6 | % Inhibition (3.3 uM) (Cryptosporidium parvum): -85% |
| AVOCADYNOFURAN | 0.02 | -19.78 | 1.4 | – |
| AVOCATIN B | 0.36 | 4.87 | 21.9 | – |
| BACITRACIN | 0.02 | -21.81 | 1.4 | – |
| BERBAMINE HYDROCHLORIDE | -0.21 | 6.86 | -15.6 | – |
| BICUCULLINE(-) METHIODIDE | -0.07 | -0.49 | -4.9 | – |
| BLEOMYCIN (bleomycin B2 shown) | -0.22 | 52.96 | -16.8 | – |
| CASANTHRANOL [CASANTHRANOL [cascaroside A shown]] | – | 50.17 | – | Cytotoxicity (%) (HCT-8 host cells (Hs18S); 10 µM): 15.4% |
| COLISTIN SULFATE | 0.01 | 33.43 | 0.4 | – |
| CYANOCOBALAMIN | -0.32 | 16.98 | -24.5 | – |
| DEGUELIN(-) | 0.60 | 45.04 | 34.2 | – |
| GARLICIN | – | 4.93 | – | Cytotoxicity (%) (HCT-8 host cells (Hs18S); 10 µM): -30.8% |
| IVERMECTIN | -0.05 | 78.97 | -3.4 | % Inhibition (3.3 uM) (Cryptosporidium parvum): 6% |
| KHAYANTHONE | -0.01 | -5.94 | -0.3 | – |
| LYSINE (L) HYDROCHLORIDE | -0.15 | -22.55 | -11.0 | – |
| OMEGA-3-ACID ESTERS (EPA shown) | – | 4.36 | – | Cytotoxicity (%) (HCT-8 host cells (Hs18S); 10 µM): -17.4% |
| PHYTOL | -0.42 | -12.94 | -33.6 | – |
| POLYMYXIN B SULFATE | -0.20 | -11.86 | -15.1 | – |
| POMIFERIN TRIMETHYL ETHER | 0.17 | -34.33 | 11.4 | – |
| SPIRAMYCIN | – | -12.26 | – | Cytotoxicity (%) (HCT-8 host cells (Hs18S); 10 µM): -12.2% |
| STROPH[…] LACTONE ACETATE | 2.37 | 96.28 | 80.7 | % Inhibition (3.3 uM) (Cryptosporidium parvum): 19% |
| TANNIC ACID | 0.27 | -22.61 | 17.0 | – |
| VERATRINE SULFATE | – | 25.98 | – | Hs18S ΔCT (HCT-8 host cells (Hs18S)): -0.06; Cytotoxicity (%) (HCT-8 host cells (Hs18S); 10 µM): -4.3 |
